Test results reported in patent publication US4271073A, “6-Substituted-9-(2-hydroxyethyl)-1,2,3,4-tetrahydro carbazol-1-one” (Cassella Aktiengesellschaft, priority 1979, dated 1981).

Assay: Antagonism Tetrabenazine (antidepressive action)
Format: in vivo
Settings: species, route and unit inferred, read-out: ED50 Antagonism Dosage Tetrabenazine

Compound	ED50 [mg/kg]
Cc1ccc2c(c1)c1c3n2CCN=C3CCC1.Cl [Example 1, 8-methyl-2,4,5,6-tetrahydro-1H-pyrazino[3,2,1-jk]carbazole-hydrochloride]	4
COc1ccc2c(c1)c1c3n2CCN=C3CCC1.Cl [Example 2, 8-methoxy-2,4,5,6-tetrahydro-1H-pyrazino[3,2,1-jk]carbazole-hydrochloride]	2
Cc1ccc2c(c1)c1c3n2CCNC3CCC1.Cl (stereo not drawn) [8-methyl-2,3,3a,4,5,6-hexahydro-1H-pyrazino[3,2,1-jk]carbazole-hydrochloride, reference compound]	14
